One series addresses T1, Bcl-2-like protein 2 (Homo sapiens, UniProt Q92843).
T1 sequence (Q92843 whole entry): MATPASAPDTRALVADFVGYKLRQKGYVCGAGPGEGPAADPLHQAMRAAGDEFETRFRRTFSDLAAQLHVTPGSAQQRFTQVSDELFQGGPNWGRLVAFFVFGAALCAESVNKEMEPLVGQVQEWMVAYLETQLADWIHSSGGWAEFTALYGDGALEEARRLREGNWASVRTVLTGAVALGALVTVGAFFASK
The experiment in a line: Inhibition of BCL-W (unknown origin) by fluorescence polarization assay. On the technique in general: In fluorescence polarisation assays a small probe gives low polarisation when free and higher when bound to something large.

Series [1] can be described thus: Toxicity in mouse xenografted with human haematological tumor at 12.5 mg/kg, po. The format is organism-based.
Series [2] has as its target T2, Bcl-2-like protein 1 (Homo sapiens, UniProt Q07817). Description: Binding affinity to BCL-XL (unknown origin) by 15N HSQC NMR analysis.
Series [3] can be described thus: Half life in monkey. The format is ADME, Macaca mulatta. The conditions noted are these: rhesus monkey, in vivo.
The nature of series [4]: Oral bioavailability in monkey. The conditions noted are these: rhesus monkey, in vivo. It counts as ADME, organism-based, Macaca mulatta.
Series [5] can be described thus: Half life in rat. The format is ADME. The conditions noted are these: in vivo.
Series [6] is described as follows: Oral bioavailability in rat. It counts as ADME, organism-based. The conditions noted are these: in vivo.
The nature of series [7]: Half life in mouse. The format is ADME, organism-based. As to conditions: in vivo.
The nature of series [8]: Oral bioavailability in mouse. The format is ADME, organism-based. The conditions noted are these: in vivo.
The nature of series [9]: Half life in dog. The format is ADME, Canis lupus familiaris. As to conditions: in vivo.
The nature of series [10]: Oral bioavailability in dog. The format is ADME, organism-based, Canis lupus familiaris. The conditions noted are these: in vivo.
Series [11] can be described thus: Half life in human. The format is ADME.
Series [12] has as its target T2, Bcl-2-like protein 1. The experiment in a line: Inhibition of BCL-XL (unknown origin) incubated for 15 mins by fluorescence polarization assay.

By Ki is commonly meant a measure of affinity in units of concentration, obtained from inhibition or displacement. The term EC50 denotes the concentration at which the effect is half-maximal. One may read the Kd as the free concentration of one partner at which half of the binding sites on the other are occupied at equilibrium, for simple one-to-one binding. The term half-life denotes the time in which the quantity being followed falls by half. The bioavailability is the share of a dose that reaches the circulation, judged against a reference dose that is usually intravenous.

T2 sequence (Q07817 whole entry): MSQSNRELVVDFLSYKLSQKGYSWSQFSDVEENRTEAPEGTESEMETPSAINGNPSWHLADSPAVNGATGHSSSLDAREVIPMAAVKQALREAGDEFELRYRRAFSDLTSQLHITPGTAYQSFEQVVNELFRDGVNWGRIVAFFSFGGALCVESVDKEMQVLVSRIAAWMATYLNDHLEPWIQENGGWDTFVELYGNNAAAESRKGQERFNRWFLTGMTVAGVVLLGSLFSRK

For `CC1(C)CCC(c2ccc(Cl)cc2)=C(CN2CCN(c3ccc(C(=O)NS(=O)(=O)c4ccc(N[C@H](CCN5CCOCC5)CSc5ccccc5)c(S(=O)(=O)C(F)(F)F)c4)cc3)CC2)C1` [NAVITOCLAX], on Bcl-2-like protein 2, the affinity corresponds to a Ki of 0.245 µM. Also, in [1], the EC50 is 0.083 µM.
Molecule `CC1(C)CCC(CN2CCN(c3ccc(C(=O)NS(=O)(=O)c4ccc(NCC5CCOCC5)c([N+](=O)[O-])c4)c(Oc4cnc5[nH]ccc5c4)c3)CC2)=C(c2ccc(Cl)cc2)C1` [VENETOCLAX] returned an EC50 in [1] of 5.5 µM.
Molecule `Oc1ccc(-c2ccccc2)cc1` returned an equilibrium dissociation constant (Kd) at Bcl-2-like protein 1 [2] of 6000 µM.
For the molecule `CN(C)CC[C@H](CSc1ccccc1)Nc1ccc(S(=O)(=O)NC(=O)c2ccc(N3CCN(Cc4ccccc4-c4ccc(Cl)cc4)CC3)cc2)cc1[N+](=O)[O-]` [ABT 737], the half-life in series [3], in series [5], in series [7] and in [9] was 4 to 6.4 h throughout. Further, the bioavailability in series [4], in series [6], in series [8] and in series [10] was 20% in each case.
In series [11], `CCS(=O)(=O)Nc1ccc(Oc2ccc(F)cc2F)c(-c2cn(C)c(=O)c3[nH]ccc23)c1` [MIVEBRESIB] gave a half-life of 25 h.
On Bcl-2-like protein 1 [12], `O=C(O)c1ccc(-c2ccc(F)cc2)cc1/C=C/c1cccc(-c2ccccc2)c1` returned a Ki of 1.4 µM.

Source of the values: ChEMBL document CHEMBL4342405, “Clinical candidates modulating protein-protein interactions: The fragment-based experience” (Eur J Med Chem, 2019).
